We go through 1 substance from PMC9448375 (Drug Delivery, 2022).

Series [1] is described as follows: log P by shake-flask method. To be noted: shake-flask n-octanol/distilled water, mutually pre-saturated; 25 °C, 24 h, 50 rpm; HPLC of INS in both phases; HIP complexes at INS:counterion 1:6; mean, n = 3. The series is classed as physicochemical. The protocol:
The log P values of different HIP complexes were determined by the shake-flask method (Zhang et al., [2021]). Prior to the experiment, distilled water and n-octanol were poured into a separatory funnel, vigorously shaken, and then allowed to settle for 24 h to mutually saturate. Stock solutions of HIP complexes in the saturated n-octanol were prepared and mixed with pre-saturated distilled water at a 1:10 (vol/vol) ratio. INS was dissolved in saturated distilled water and then mixed with pre-saturated n-octanol. The tube was incubated at 25 °C for 24 h with continuous shaking (50 rpm) and allowed to separate for 1 h, after which it was centrifuged at 16,000g for 10 min. Afterward, samples from both phases were carefully analyzed by HPLC.

Another series has as its target T1, pepsin (Sus scrofa, UniProt P00791).
T1 construct: purchased Sigma–Aldrich Chemical Co. (St. Louis, MO, USA)
Put plainly: Stability against GI enzymes in simulated gastric fluid (SGF). Format: in vitro ADME. The conditions noted are these: SGF: pepsin 2,000 U/mL in pH 1.2 solution, mixed 1:1 with sample (INS 0.2 mg/mL), 37 °C, 100 rpm, HPLC, n = 3. The method, then: Simulated gastric fluid (SGF) was prepared by adding pepsin to pH 1.2 solution to a concentration of 2,000 U/mL. Simulated intestinal fluid (SIF) was prepared by adding trypsin (5,000 BAEE U/mL), chymotrypsin (20 IU/mL), lipase (400 IU/mL), and bile salt (10 mM) to the Tris buffer (50 mM, pH 8.0). […] Then, 250 µL of either SGF or SIF was added to the 250 µL of each formulation for enzymatic degradation. The mixture was transferred to a shaking incubator (SI-900R; JeioTech, Daejeon, Korea) and incubated at 37 °C under shaking (100 rpm). Finally, […] of cooled 0.1% TFA in methanol was added at predetermined time points (0, 5, 15, 30, 60, and 120 min) to quench the enzymatic reaction. For intestinal enzyme study, the reaction was continued for 240 min. Finally, the amount of INS remaining in the obtained samples was quantified by HPLC, as described earlier.

The subject of series [2] is trypsin, chymotrypsin, lipase, bile salt. Kind of series: Stability against GI enzymes in simulated intestinal fluid (SIF). The series is classed as in vitro ADME. The conditions noted are these: SIF: trypsin 5,000 BAEE U/mL, chymotrypsin 20 IU/mL, lipase 400 IU/mL, bile salt 10 mM, Tris 50 mM pH 8.0; mixed 1:1 with sample (INS 0.2 mg/mL); 37 °C, 100 rpm; 0–240 min; HPLC; first-order fit; n = 3.
Protocol: Simulated intestinal fluid (SIF) was prepared by adding trypsin (5,000 BAEE U/mL), chymotrypsin (20 IU/mL), lipase (400 IU/mL), and bile salt (10 mM) to the Tris buffer (50 mM, pH 8.0). […] Then, 250 µL of either SGF or SIF was added to the 250 µL of each formulation for enzymatic degradation. The mixture was transferred to a shaking incubator (SI-900R; JeioTech, Daejeon, Korea) and incubated at 37 °C under shaking (100 rpm). Finally, 500 mL of cooled 0.1% TFA in methanol was added at predetermined time points (0, 5, 15, 30, 60, and 120 min) to quench the enzymatic reaction. For intestinal enzyme study, the reaction was continued for 240 min.

For series [3], the system named is streptozotocin-induced diabetic Sprague–Dawley rats. Put plainly: Pharmacodynamic study in diabetic rats (blood glucose level). Format: in vivo, rat. The conditions noted are these: for AAC0–8h (area above the blood glucose level curve, % of initial, 0–8 h) / BGLmin (minimum blood glucose level, % of initial levels) / Tmin (time to reach BGLmin): mean ± SD, n = 5–7. The protocol:
To establish animal models of type 1 diabetes mellitus, male Sprague–Dawley rats were injected intraperitoneally with freshly prepared single doses of streptozotocin (60 mg/kg) dissolved in citrate buffer (0.1 M, pH 4.5). The successful induction of diabetes was corroborated by an increase in blood glucose levels after five days. Only the rats with fasting blood glucose levels higher than 250 mg/dL were considered diabetic.
All rats were fasted for 12 h before the experiment, with free access to water. […] Subsequently, blood samples were collected from the tail vein at different time intervals (0, 0.5, 1, 1.5, 2, 3, 4, 5, 6, and 8 h) and tested using a glucometer (GreenDoctor, GREENCROSS MEDIS Co., Chungnam, Korea). Based on the blood glucose level at 0 h (initial), each blood glucose level was converted to the relative level (% of initial). A value of 100% of the relative level was chosen as a reference point (upper limit) for the determination of the area above the blood glucose (% of initial)–time curve (AAC) values for decreased blood glucose levels.

T1 sequence (P00791 60-385): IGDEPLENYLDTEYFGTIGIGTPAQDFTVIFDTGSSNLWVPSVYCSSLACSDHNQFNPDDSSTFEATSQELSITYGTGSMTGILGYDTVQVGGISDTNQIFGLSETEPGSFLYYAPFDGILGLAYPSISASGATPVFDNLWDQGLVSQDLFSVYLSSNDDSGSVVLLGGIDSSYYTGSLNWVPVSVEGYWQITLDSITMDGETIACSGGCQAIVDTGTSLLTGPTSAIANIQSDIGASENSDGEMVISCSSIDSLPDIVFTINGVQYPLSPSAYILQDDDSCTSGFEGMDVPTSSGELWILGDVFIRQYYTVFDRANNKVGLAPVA

For the substance Insulin, the “log P” value in series [1] is “–1.61”. Also, the “Rate constant of INS degradation, simulated gastric fluid” value with pepsin (0–120 min, first-order fit) was 0.1854 min⁻¹. In the series with pepsin, the “Half-life of INS, simulated gastric fluid” value is given as 3.74 min. Further, the “Rate constant of INS degradation, simulated intestinal fluid” value in series [2] is 0.1980 min⁻¹. In series [3] (SC injection, 5 IU/kg), the “AAC0–8h (area above the blood glucose level curve, % of initial, 0–8 h)” value is given as 439.29 ± 30.00 %·h; the “BGLmin (minimum blood glucose level, % of initial levels)” value is 22.78 ± 1.92%; the “Tmin (time to reach BGLmin)” value was 3.20 ± 0.84 h. In series [3] (oral gavage, 50 IU/kg), the “AAC0–8h (area above the blood glucose level curve, % of initial, 0–8 h)” value is “–44.47 ± 38.33 %·h”; the “BGLmin (minimum blood glucose level, % of initial levels)” value was 97.92 ± 1.23%; the “Tmin (time to reach BGLmin)” value is 2.75 ± 0.25 h. Moreover, the “antidiabetic effects (blood glucose level versus time)” value in series [3] (oral, 50 IU/kg) was “negligible”.
